Assay results reported in patent US20090170893A1, “NOVEL HYDRATE FORM” (priority 2006, published 2009).

Experiment: storage stability of the solid form (polymorphic conversion)
Assay type: physicochemical

For COc1c(N2C[C@@H]3CCCN[C@@H]3C2)c(F)cc2c(=O)c(C(=O)O)cn(C3CC3)c12.Cl [Example 1, 1-cyclopropyl-7-([S,S]-2,8-diazabicyclo-[4.3.0]non-8-yl)-6-fluoro-1,4-dihydro-8-methoxy-4-oxo-3-quinolinecarboxylic acid], the “stability / polymorphic conversion on prolonged storage” value (prolonged storage over 3 weeks at ambient conditions) was “stable and exhibit no polymorphic conversion” and the “stability / polymorphic conversion on prolonged storage” value (prolonged storage over 3 weeks at high humidity accelerated conditions) was “stable and exhibit no polymorphic conversion”.
